Patent US7820637B2, “Use of 5′-methylthioadenosine (MTA) in the prevention and/or treatment of autoimmune diseases and/or transplant rejection” (Proyecto de Biomedicina Cima, S.L., priority 2005, dated 2010)

Legend:
[1] = tested on: acute EAE in Lewis rats immunised with MBP; experiment: Acute EAE induction and clinical score in Lewis rats immunised with MBP; type: in vivo, rat
[2] = tested on: chronic-recurrent EAE (CR-EAE) in Dark Agouti (DA) rats immunised with MOG; experiment: Chronic-recurrent EAE (CR-EAE) clinical score and survival in DA rats immunised with rMOG; type: in vivo, rat
[3] = tested on: inflammatory infiltrates in brain and spinal cord of Lewis rats immunised with MBP; experiment: Histopathology and immunohistochemistry of brain and spinal cord; type: in vivo, rat
Method: The two Lewis rat groups were anaesthetised and injected by intracardiac route with 4% paraformaldehyde in 0.1 M phosphate buffer (pH 7.6) on day 16 of the disease. The brains and the cervical, thoracic and lumbar spinal cord segments were extracted and fixated for the entire night at 4° C. After fixation, the tissues were soaked in paraffin for histopathology and immunohistochemistry.
Histological evaluation of the brain and spinal cord sections included in paraffin was conducted. The sections were stained with hematoxylin-eosin (HE) and Luxol fast-blue in order to be able to assess the tissues' inflammation and demyelination. 24-30 sagital sections were examined for each rat. The blind semi-quantitative histological evaluation of inflammation and demyelination was conducted as previously described [Villoslada, P., et al., J. Exp Med, 2000. 191 (10):1799-806].
The immunohistochemical procedures were conducted on […] brain and medulla sections included in paraffin. The endogenous peroxidase activity was deactivated by means of 0.3% H2O2 in methanol for 20 min.
The sections were incubated for 30 min in PBS with 0.5% Tween® 20 and 10% goat or horse serum (Vector Laboratorios) and for 2 hours in PBS with 0.5% Tween® 20 and the primary antibodies in the following dilutions: rabbit antiglial fibrillary acid polyclonal anti-protein antibody (GFAP), 1:1,000 (Dakocytomation); mouse beta-amyloid precursor anti-protein antibody (APP), 1:100 (Zymed Laboratorios); mouse […] (OX-6), 1:200 (Serotec); rat anti-CD8 antibody, 1:250 (Serotec); type II anti-iNOS antibody, 1:250 (Serotec); rat anti-CD68 antibody (ED1), 1:200 (Serotec) and rat anti-CD43 antibody (W3/13), 1:50 (Serotec). Subsequently, the sections were washed with PBS and incubated for 45 min at room temperature with the appropriate biotinylated secondary IgG antibody (1:100 in PBS; Vector Laboratorios), followed by several washes in PBS/Tween® and a 45-min incubation at room temperature with the avidin-biotin peroxidase complex (ABC, Vector Laboratorios).
The immunoreaction specificity was determined by incubating the sections without the primary antibody. The images were obtained using an optic microscope.
The neuropathological evaluation confirmed the observed clinical protection. […] Inflammatory lesions were found in both the white and grey matter of the cervical, thoracic and lumbar spinal cord, and the brain. […] There were significant differences between the placebo animals and those treated with MTA in terms of both the severity and the central nervous system (CNS) regions affected. Treatment with MTA inhibits the development of inflammatory EAE in Lewis rats immunised with MBP.

[4] = tested on: splenocytes (MBP-specific T-lymphocyte response); experiment: Lymphocyte proliferation assay (MBP-induced, splenocytes of treated rats); type: cell-based, rat; settings: splenocytes of Lewis rats immunised with MBP, day 16 after immunisation, treated in vivo with MTA; MBP 10 μg/ml
Method: The splenocytes were purified by means of Ficoll Hypaque density centrifugation starting from the rats with EAE and non-immunised rats. The lymphocite proliferation assay was conducted in the same manner as previously described [Villoslada, P., et al., J. Exp Med, 2000. 191 (10):1799-806].
Briefly, the splenocytes were placed in culture at a concentration of 2×10^6/ml in RPMI 1640 medium supplemented with 10% fetal bovine serum and penicillin/streptomycin, in the presence or absence of phytohemagglutinin (PHA, 5 μg/ml), MBP (10 μg/ml), MTA (100 μM) and DMSO. The cultures were incubated for 5 days in 96-well round-base plates (0.2 ml/well) at 37° C. The wells were struck with 0.5 μCi [^3H]TdR for 18 hours. The reading was performed using a liquid scintillation counter. The results were expressed as the mean stimulation index of the triplicate determinations.
In order to determine whether treatment with MTA modified the peripheral immune system's response to the antigen used in the immunisation, the MBP-induced proliferation responses were measured in splenocytes of animals treated with MTA and placebo (in Lewis rats). […] Therefore, it is observed that MTA inhibits the MBP-specific lymphocyte activation, which points to its immunomodulatory effect.

[5] = tested on: IL-2, IFN-γ, TNF-α, IL-10 and iNOS mRNA; experiment: Quantitative real-time PCR of cytokine and pro-inflammatory mediator mRNA in splenocytes; type: in vivo, rat; settings: splenocytes of Lewis rats treated with MTA; relative to 18S rRNA (FIG. 5)
Method: Spleen, liver and blood samples were also obtained from each animal. The spleens and the livers were quickly frozen in liquid nitrogen and kept in fragments at −80° C. in order to be able to conduct the studies with RT-PCR (reverse transcription and polymerase chain reaction). The blood was centrifuged at 800 rpm for 10 minutes in order to obtain the serum, which was kept at −80° C.
The spleen and liver tissue segments were homogenised in RNA lysis buffer with 2% β-mercaptoethanol using a manual homogeniser. The total RNA was extracted using the Rneasy Mini Kit (Quiagen), following the manufacturer's instructions. During RNA purification, the DNA was eliminated by treatment with DNase. The RNA concentration and purity was determined by measuring the absorbance at 260 nm and 280 nm with a spectrophotometer (Eppendorf). Reverse transcription of the total RNA was performed using the High Capacity cDNA Archive Kit (Applied Biosystems). […]
For the quantitative PCR, the TaqMan Universal Master Mix (Applied Biosystems) was used. […]
The IL-2, IFN-γ, TNF-α, IL-10 and iNOS mRNA expression levels were quantified in relation to the rRNA 18S constitutive gene.
It was assessed whether MTA had the capacity to modify the expression of cytokines and other pro-inflammatory mediators. The IL-2, IFN-γ, TNF-α, IL-10 and iNOS gene expression was analysed by means of quantitative real-time PCR (RT-PCR). […]

[6] = MTA 4.3 mg/animal i.p. daily from immunisation
[7] = 100 μM MTA i.p. daily from day 15 after immunisation
[8] = immunohistochemical staining, MTA versus placebo group

With CSCC1OC(n2cnc3c(N)ncnc32)C(O)C1O (stereo not drawn) [MTA, 5′-methylthioadenosine] the “EAE Incidence (%)” value [1, 6] was “(28.57%)”, the “EAE Incidence (rats with EAE / number of rats)” value [1, 6] was 4/14 and the “Cumulative EAE Score” value ([1]; MTA i.p. daily from immunisation) was 2 ± 0.07. For the same compound, the “Onset of EAE” value ([1]; MTA i.p. daily from immunisation, treated animals that developed symptoms) was 15 ± 1.2 days, the “Cumulative EAE Score” value [2, 7] was 23 ± 20 and the “Incidence 2nd outbreak” value [2, 7] was 10/10. For the same compound, the “Onset (days) 2nd outbreak” value [2, 7] was 26 ± 6 days, the “Max. EAE Score” value ([2]; 100 μM MTA i.p. daily from day 15 after immunisation, scale 0-5) was 1.8 ± 1.5 and the “survival rate versus placebo group” value ([2]; survival curves to score 3.5 and to exitus (FIG. 3)) was “significantly higher”. For the same compound, the “number of positive ED1 and W3/13 cells in inflammatory infiltrates” value [3, 8] was “higher in the placebo group”, the “proportions of positive OX-6 cells in inflammatory infiltrates” value [3, 8] was “same proportions” and the “stains for APP and iNOS” value ([3]; immunohistochemical staining, both groups) was “very low detection levels”. For the same compound, the “number and size of the inflammatory infiltrates versus placebo” value ([3]; spinal cord and brain, Lewis rats immunised with MBP (FIG. 6)) was “lower”, the “stimulation index (MBP-specific proliferation response)” value [4] was 1.18±0.4 and the “mRNA expression of cytokines (IL-2, IFN-γ, TNF-α, IL-10, iNOS) versus placebo group” value [5] was “lower”.
